Where a name gives a salt, the structure may show the parent alone.
Tested on: Cochliobolus miyabeanus
Assay: activity against brown spot of rice caused by Cochliobolus miyabeanus, protective application
Type: in vivo
Details: rice seedlings cultivar Tai-Nong 67, protective application, 6 days after inoculation
Description: 1% by weight of the emulsifier Uniperol® EL (wetting agent having emulsifying and dispersant action based on ethoxylated alkylphenols) was added to this solution, and the mixture was diluted with water to the desired concentration.
Use example—activity against brown spot of rice caused by Cochliobolus miyabeanus, protective application […]
The next day, the plants were inoculated with an aqueous spore suspension of Cochliobolus miyabeanus. The test plants were then placed in climatized chambers at 22-24° C. and 95-99% relative atmospheric humidity for 6 days. The extent of the development of the infection on the leaves was then determined visually.
Evaluation was carried out by determining the percentage of infected leaf area. These percentages were converted into efficacies.
The efficacy (E) is calculated as follows using Abbot's formula: E=(1−α/β)·100 α corresponds to the fungicidal infection of the treated plants in % and β corresponds to the fungicidal infection of the untreated (control) plants in % An efficacy of 0 means that the infection level of the treated plants corresponds to that of the untreated control plants; an efficacy of 100 means that the treated plants are not infected.

## CC1CCN(c2c(-c3c(F)cc(F)cc3F)c(Cl)nc3ncnn23)CC1 [I, 5-chloro-7-(4-methylpiperidin-1-yl)-6-(2,4,6-trifluorophenyl)-[1,2,4]triazolo[1,5-a]pyrimidine]
4 ppm active compound in the spray liquor
  Efficacy in % of the untreated control: 33%

## CCO[PH](=O)O [IIb (fosetyl-Al), ethyl phosphonate aluminum salt]
1 ppm active compound in the spray liquor
  Efficacy in % of the untreated control: 0%
16 ppm active compound in the spray liquor
  Efficacy in % of the untreated control: 0%

— patent publication US20070202192A1, “Fungical Mixtures For Controlling Rice Pathogens” (BASF AKTIENGESELLSCHAFT, priority 2003, published 2007)
